{"source": "patent US20050003546A1", "about": "“Viral uptake into cells and tissues” (Yale University, priority 2001, published 2005)", "key": {"[1]": {"system": "vascular permeability in mouse ear", "test": "Permeability assay: Evans blue leakage in mouse ear after intradermal Ad-VEGF", "format": "in vivo", "protocol": "Ad-VEGF (5.5×10^7 pfu) or Ad-β-gal (2.5×10^7 pfu) with or without AP complex (10 μM; 30 minutes at room temperature) was injected intradermally into the ear of CD1 mouse. Evans blue leakage was monitored 4 days after infection as described previously (9)."}, "[2]": {"system": "bovine aortic endothelial cells (BAEC)", "test": "Ad-GFP adenovirus infection of bovine aortic endothelial cells (Western blot)", "format": "cell-based", "conditions": "AP/Ad-GFP complex", "protocol": "(§1) Adenoviruses (1 m.o.i. or approximately 1×10^6 pfu per 60 mm dish) were pre-complexed with the peptides (0.05 to 5 mM) in 100 μl of serum free media (OptiMEM; Gibco, Grand Island, N.Y.) for 30 min at room temperature. Cells (COS-7 or BAEC) were grown on 60 mm dishes until 90% confluent and media was changed to serum free (2 ml) before exposure to the adenovirus complex. The complex (100 μl) was added to the cells for 4 hrs and then the cells were washed and changed to complete growth media for 24 to 48 hours.\n(§2) Western blotting was performed as described previously (16). Briefly, cells were lysed (50 mM Tris-HCl, 0.1 mM EDTA, 0.1 mM EGTA, 1% (v/v) Nonidet P-40, 0.1% SDS, 0.1% deoxycholic acid, 1 mM Pefabloc, 10 μg/ml aprotinin, and 10 μg/ml leupeptin) for 1 hr at 4° C. and the soluble material was separated on a 10% SDS-PAGE, and transferred to a nitrocellulose membrane. Blocked membranes were probed using the specific polyclonal anti-GFP (Clontech, Palo Alto, Calif.) or the monoclonal anti-hsp90(Stressgen, Victoria, Canada) antibodies. After washing and incubating with secondary antibodies, immunoreactive proteins were visualized by ECL detection system (Amersham, Buckinghamshire, UK)."}, "[3]": {"system": "carotid arteries from eNOS -/- mice", "test": "Isometric studies: acetylcholine-induced relaxation of eNOS -/- carotid arteries transduced with Ad-eNOS", "parameters": "species or system mouse", "conditions": "carotid arteries of eNOS (-/-) mice luminally transduced with Ad-eNOS, without or pre-complexed with AP", "protocol": "(§3) The common carotid artery was cannulated, flushed with a small amount (˜3 μl) of virus and tied off proximally. Approximately 3 μl of Ad-β-gal (1×10^9 pfu/ml), Ad-GFP (1×10^9 pfu/ml), Ad-eNOS (5×10^10 pfu/ml) virus or virus complexed with AP (10 μM) for 30 min at room temperature was injected. The virus-filled vessel was incubated in situ at 37° C. for 2 hours and then rinsed in saline prior to overnight (18 hours) incubation in complete DMEM at 37° C., 5% CO2. Control vessels were filled with viral storage buffer and treated in an identical manner.\nRings of carotid artery were studied as described previously (17). To assess endothelial function, vessels were precontracted with a submaximal (˜80%) concentration of PGF2α (5×10^−6 mol/L) prior to application of endothelium-dependent dilator acetylcholine (10^−10−3×10^−6 mol/L)."}, "[4]": {"system": "human umbilical vascular endothelial cells (HUVEC)", "test": "Ret-GFP retrovirus infection of HUVEC (Western blot, fluorescence microscopy)", "format": "cell-based", "protocol": "For retroviral infections supernatant from phoenix retroviral packaging cell line expressing […] was incubated for 30 min at 37 C in presence of AP (0.1-0.5 mM). HUVEC cells were exposed to the mixture for 24 hrs and then harvested.\nas §2\nLive cells infected with Ad-GFP were washed with serum free media and visualized using a Zeiss Axiovert 200 microscope under phase contrast or GFP filters (excitation 450 nm, emission 510 nm). Images were captured using the Openlab Imaging software (Improvision, Lexington, Mass.). […] Cells were resuspended in PBS and were analyzed by gating for GFP fluorescence by flow cytometry using a FACSort (Becton Dickinson, San Jose, Calif.)."}, "adductor muscle": {"system": "adductor muscle", "test": "Intramuscular Ad-β-gal reporter virus injection into mouse adductor muscle", "format": "in vivo", "conditions": "Ad-β-gal 5×10^7 pfU in 25 μl, three sites, pre-complexed with AP 10 μM", "protocol": "(§4) -galactosidase expression was monitored by either X-Gal staining or activity 4 days after virus administration as described previously (14,18).\n(§5) Ischemic hind limb model was performed as described previously (19). Briefly, following anesthesia, the left femoral artery was exposed under a dissection microscope. The proximal end of the femoral artery and the distal portion of the saphenous artery were ligated. All branches between these two sites were cauterized, and arteriectomy was performed. Following arteriectomy, 25 μl of either virus storage buffer, Ad-VEGF (5.5×10^7 pfu), Ad- -ga l (2.5×10^7 pfu), pre-complexed with AP (30 min room temperature; 10 μM) or AP alone (at least 5 animals per group) was injected into the adductor muscle at 3 different sites. Mice were sacrificed 21 days following surgery and muscles of the lower limbs were harvested, methanol fixed and paraffm embedded. Tissue sections (5 μm thick) were stained using an anti-CD31 antibody (Pharmingen, San Diego, Calif.), and hematoxylin counter stained. Pictures from 4 random areas of each section, and 3 sections per mice were taken using a Kodak digital camera mounted on a light microscope (40× objective). Capillary density was quantified by measuring the percentage of CD31 positive area out of total area using the Matlab software (The Math Works, Inc.)."}, "[5]": {"system": "bovine aortic endothelial cells (BAEC)", "test": "Nitric oxide release from BAEC infected with Ad-eNOS or Ad-GFP", "format": "cell-based", "protocol": "as §1\nBasal NO2^− release from BAEC, a stable metabolite of NO, was assessed in the medium as described (9). In all experiments, release was attenuated by a NOS inhibitor."}, "COS-7 cells": {"system": "COS-7 cells", "test": "Ad-GFP adenovirus infection of COS-7 cells (Western blot, fluorescence microscopy, flow cytometry)", "format": "cell-based", "protocol": "as §1, §2\nLive cells infected with Ad-GFP were washed with serum free media and visualized using a Zeiss Axiovert 200 microscope under phase contrast or GFP filters (excitation 450 nm, emission 510 nm). Images were captured using the Openlab Imaging software (Improvision, Lexington, Mass.). Flow cytometric analysis of GFP expressing cells was performed 48 h after following infection. Cells were trypsinized, PBS washed and fixed in 70% ethanol at 4° C. Cells were resuspended in PBS and were analyzed by gating for GFP fluorescence by flow cytometry using a FACSort (Becton Dickinson, San Jose, Calif.)."}, "[6]": {"system": "mouse carotid artery endothelium", "test": "Endothelium specific gene transfer of mouse carotid arteries ex vivo (Ad-GFP, Ad-β-gal)", "protocol": "as §3, §4"}, "[7]": {"system": "blood vessels of the lower limbs (PECAM/CD31 positive area)", "test": "Ischemic hind limb angiogenesis assay with intramuscular Ad-VEGF", "format": "in vivo, mouse", "conditions": "intramuscular Ad-VEGF 5.5×10^7 pfu in presence of AP, hind limb ischemia", "protocol": "as §5"}}}
{"sequence": "RQIKIWFQNRRMKWKK [AP]", "values": [{"measurement": "increase of basal vascular permeability over Ad-VEGF alone", "setting": "[1]; AP complexed with Ad-VEGF, mouse ear", "value": 2.5, "unit": "fold"}, {"measurement": "ability of VEGF to promote vascular leak (extravasation of Evans blue)", "setting": "[1]; Ad-VEGF 5.5×10^7 pfu with AP, intradermal, 4 days", "value": "significantly enhanced"}, {"measurement": "GFP expression levels (western blotting) compared to Ad-GFP alone", "setting": "[2]", "value": "marked increase"}, {"measurement": "endothelium dependent dilation in response to acetylcholine (Ach)", "setting": "[3]", "value": "improved"}, {"measurement": "GFP expression (western blot)", "setting": "[4]; AP 0.05-0.5 mM added to Ret-GFP viral supernatant (approximately 10^6-10^7 pfu/ml)", "value": "dose-dependently enhanced"}, {"measurement": "GFP positive cells (fluorescence microscopy)", "setting": "[4]; AP/Ret-GFP complex", "value": "substantial increase"}, {"measurement": "staining for β-galactosidase activity in adductor muscle", "setting": "adductor muscle", "value": "increased"}, {"measurement": "Ad-eNOS mediated NO release from cultured endothelial cells", "setting": "[5]; 1 m.o.i. of eNOS virus in absence or presence of AP", "value": "improves"}, {"measurement": "NO release with control virus Ad-GFP", "setting": "[5]; Ad-GFP 1 m.o.i. in absence or presence of AP", "value": "does not influence"}, {"measurement": "expression of GFP (western blotting)", "setting": "COS-7 cells; AP 0.05 to 5.0 mM pre-incubated 30 min with Ad-GFP 1 m.o.i., diluted 20 fold into medium, COS-7", "value": "dose-dependently improved"}, {"measurement": "increase in cells strongly positive for GFP (M2), flow cytometry", "setting": "COS-7 cells; Ad-GFP 1 m.o.i. pre-complexed with AP vs Ad-GFP alone, COS-7", "value": "~10", "unit": "fold"}, {"measurement": "numbers of GFP positive cells (fluorescent microscopy) compared to virus alone", "setting": "COS-7 cells; Ad-GFP pre-incubated with 0.5 mM AP, COS-7", "value": "increased numbers"}, {"measurement": "GFP expression when cells exposed to AP prior to or after Ad-GFP infection (no pre-complex step)", "setting": "COS-7 cells; COS-7, Ad-GFP", "value": "did not yield an increase"}, {"measurement": "infectivity of the Ad-GFP virus (en face fluorescence imaging)", "setting": "[6]; Ad-GFP 10^9 pfu/ml pre-complexed with AP 10 μM, luminal, ex vivo", "value": "markedly improved"}, {"measurement": "X-Gal staining in the endothelial cell layer (tissue cross section)", "setting": "[6]; Ad-β-gal 10^9 pfu/ml, AP pre-treatment, ex vivo", "value": "increased staining"}, {"measurement": "β-galactosidase activity increase over Ad-β-gal infection alone", "setting": "[6]; carotid arteries treated with AP/Ad-β-gal complex", "value": "two"}, {"measurement": "PECAM positive vessels compared to Ad-VEGF alone", "setting": "[7]", "value": "> 4", "unit": "fold"}]}
{"sequence": "GRKKRRQRRRPPQ (Human immunodeficiency virus) [Tat peptide, synthetic peptide, HIV Tat amino acids 48-60]", "values": [{"measurement": "increasing Ad-GFP infection (GFP western blot), compared with AP", "setting": "COS-7 cells; Tat peptide 0.1 and 0.5 mM, COS-7", "value": "as efficient as AP"}]}
